Results from US9062002B2, “Substituted pyridine derivatives as FabI inhibitors” (Aurigene Discovery Technologies Limited, priority 2011, dated 2015).
≈ marks a conversion by molar mass, not a printed value. Where two headings read alike, the source gives them in different places.

Experiments:
MRSE = experiment: MIC by broth microdilution method; format: cell-based; details: for MIC: Staphylococcus epidermidis, MRSA / MRSE, read-out: MIC Vs MRSA (μg/ml) MRSE
Fab I = details: 1 μM compound
MRSA = experiment: MIC by broth microdilution method; format: cell-based; details: for MIC: Staphylococcus aureus, read-out: MIC Vs MRSA (μg/ml) MRSA
[1] = Metabolic stability study in mouse liver microsomes; format: in vitro ADME; details: 1 μM, 37° C.
Method: The above selected compounds have protected mice from infection at ED50 doses. Metabolic Stability Study: In vitro metabolic stability of the compounds was done in mouse liver microsomes prepared in house as per standard protocol. Compounds were tested at 1 μM concentration. Compounds were incubated for 15 and 60 minutes at 37° C. with 100 rpm in shaker bath. After the incubation samples were analysed by LC/MS (API-4000). Respective control (Propranalol) was included in the study.

MSSA = experiment: MIC by broth microdilution method; format: cell-based; details: for MIC: Staphylococcus aureus, MRSA / MSSA, read-out: MIC Vs MRSA (μg/ml) MSSA

SMILES | MIC (MRSE; MRSE, broth microdilution) [µg/mL] | FAB-I inhibition %@1 μM (Fab I) [%] | MIC (MRSA; MRSA, broth microdilution) [µg/mL] | Percentage of compound remained after 15 min [1] [%] | Percentage of compound remained after 60 min [1] [%] | MIC (MSSA; MSSA, broth microdilution) [µg/mL] | MIC Vs MRSA (μg/ml) MRSE (MRSE; MRSE, broth microdilution) [µg/mL] | MIC Vs MRSA (μg/ml) MRSA (MRSA; MRSA, broth microdilution) [µg/mL] | MIC Vs MRSA (μg/ml) MSSA (MSSA; MSSA, broth microdilution) [µg/mL] | MIC Vs MRSA (μg/ml) MRSE (MRSE) [µg/mL] | MIC Vs MRSA (μg/ml) MRSA (MRSA) [µg/mL] | MIC Vs MRSA (μg/ml) MSSA (MSSA) [µg/mL]
O=C1CCc2cc(/C=C/C(=O)N3CC=C(c4ccccc4)CC3)cnc2N1 [Compound 2, (E)-6-(3-oxo-3-(4-phenyl-5,6-dihydropyridin-1(2H)-yl)prop-1-en-1-yl)-3,4-dihydro-1,8-naphthyridin-2(1H)-one] | 4 (≈ 11.1 µM) | 86 | 0.5 (≈ 1.39 µM) | 99.7 | 97.9 | 0.5 (≈ 1.39 µM) |  |  |  |  |  | 
O=C1CCc2cc(/C=C/C(=O)N3CC=C(c4ccc(F)cc4)CC3)cnc2N1 [Compound 8] |  | 108 |  |  |  |  | 8 (≈ 21.2 µM) | 2 (≈ 5.3 µM) | 2 (≈ 5.3 µM) |  |  | 
Cc1cnc(CC2=CCN(C(=O)/C=C/c3cnc4c(c3)CCC(=O)N4)CC2)s1 [Compound 57] |  |  |  | 86.8 | 57.1 |  |  |  |  |  |  | 
O=C1CCc2cc(/C=C/C(=O)N3CC=C(Cc4ccccc4)CC3)cnc2N1 [Compound 62] |  | 76 |  | 78.5 | 54.2 |  |  |  |  | 0.5 (≈ 1.34 µM) | 0.5 (≈ 1.34 µM) | 0.25 (≈ 0.669 µM)
O=C1CCc2cc(/C=C/C(=O)N3CC=C(Cc4cccc(F)c4)CC3)cnc2N1 [Compound 65] |  | 90 |  | 90.6 | 75.0 |  |  |  |  | 0.5 (≈ 1.28 µM) | 0.25 (≈ 0.639 µM) | 0.25 (≈ 0.639 µM)
O=C1CCc2cc(/C=C/C(=O)N3CC=C(Cc4ccccc4F)CC3)cnc2N1 [Compound 66] |  | 84 |  |  |  |  |  |  |  | 0.25 (≈ 0.639 µM) | 0.25 (≈ 0.639 µM) | 0.25 (≈ 0.639 µM)
O=C1CCc2cc(/C=C/C(=O)N3CC=C(Cc4cccc(Cl)c4)CC3)cnc2N1 [Compound 67] |  | 63 |  |  |  |  | 2 (≈ 4.9 µM) | 1 (≈ 2.45 µM) | 2 (≈ 4.9 µM) |  |  | 
Cc1ccc(CC2=CCN(C(=O)/C=C/c3cnc4c(c3)CCC(=O)N4)CC2)cc1 [Compound 70] |  | 63.47 |  |  |  |  |  |  |  | 2 (≈ 5.16 µM) | 1 (≈ 2.58 µM) | 1 (≈ 2.58 µM)
O=C1CCc2cc(/C=C/C(=O)N3CC=C(Cc4cccs4)CC3)cnc2N1 [Compound 84] |  | 100 |  |  |  |  |  |  |  | 0.25 (≈ 0.659 µM) | 0.25 (≈ 0.659 µM) | 0.125 (≈ 0.329 µM)
O=C1CCc2cc(/C=C/C(=O)N3CC=C(Cc4sccc4Cl)CC3)cnc2N1 [Compound 87] |  | 69.05 |  |  |  |  |  |  |  | 0.5 (≈ 1.21 µM) | 0.5 (≈ 1.21 µM) | 0.5 (≈ 1.21 µM)
CC(=O)Nc1ccc(/C=C/C(=O)N2CC=C(Cc3cccs3)CC2)cn1 [Compound 88, (E)-N-(5-(3-oxo-3-(4-(thiophen-2-ylmethyl)-5,6-dihydropyridin-1(2H)-yl)prop-1-en-1-yl)pyridin-2-yl)acetamide] | > 128 | 87 | > 128 | 11.1 | 5.5 | > 128 |  |  |  |  |  | 
O=C(/C=C/c1cnc2c(c1)CN(CCN1CCOCC1)C(=O)N2)N1CC=C(Cc2cccs2)CC1 [Compound 90, (E)-3-(2-morpholinoethyl)-6-(3-oxo-3-(4-(thiophen-2-ylmethyl)-5,6-dihydropyridin-1(2H)-yl)prop-1-en-1-yl)-3,4-dihydro pyrido[2,3-d]pyrimidin-2(1H)-one] | > 128 | 89 | > 128 | 32.4 | 22.9 | > 128 |  |  |  |  |  | 
O=C1CNCc2cc(/C=C/C(=O)N3CC=C(Cc4cccs4)CC3)cnc2N1 [Compound 92, (E)-7-(3-oxo-3-(4-(thiophen-2-ylmethyl)-5,6-dihydropyridin-1(2H)-yl)prop-1-en-1-yl)-4,5-dihydro-1H-pyrido[2,3-e][1,4]diazepin-2(3H)-one] | 0.25 (≈ 0.634 µM) |  | 0.25 (≈ 0.634 µM) |  |  | 0.12 (≈ 0.304 µM) |  |  |  |  |  | 
